# Reference: ChEMBL document CHEMBL5214960 (J Med Chem, 2022)
# Numbering of substitutions follows the chain as printed.
# Tests used:
# [1] = Metabolic stability in human hepatic microsome at 4 uM measured after 30 mins by LC-MS analysis; type: ADME; settings: liver microsomes, read-out: Stability
# [2] = Plasma protein binding in mouse assessed as unbound fraction measured after 4.5 hrs by LC-MS/MS analysis; type: ADME, cell-free
# CYP2D6 = CYP2D6 (Homo sapiens, UniProt P10635); test: Inhibition of human hepatic CYP2D6 using bufuralol HCL as substrate measured after 3 mins by LC-MS analysis relative to control; type: ADME, tissue-based; parameters: concentration or dose not given beside the values; settings: human hepatic CYP2D6 (liver), probe bufuralol HCl
# [3] = Aqueous solubility of compound at pH 6 by HPLC analysis; type: physicochemical; settings: buffer
# CYP2C9 = CYP2C9 (Homo sapiens, UniProt P11712); test: Inhibition of human hepatic CYP2C9 using diclofenac as substrate measured after 10 mins by LC-MS analysis relative to control; type: ADME, tissue-based; parameters: concentration or dose not given beside the values; settings: human hepatic CYP2C9 (liver), probe diclofenac
# [4] = Metabolic stability in mouse hepatic microsome at 4 uM measured after 30 mins by LC-MS analysis; type: ADME; settings: liver microsomes, read-out: Stability
# CYP3A4 = CYP3A4 (Homo sapiens, UniProt P08684); test: Inhibition of human hepatic CYP3A4 using midazolam as substrate measured after 3 mins by LC-MS analysis relative to control; type: ADME, tissue-based; parameters: concentration or dose not given beside the values; settings: human hepatic CYP3A4 (liver), probe midazolam
# [5] = Metabolic stability in dog hepatic microsome at 4 uM measured after 30 mins by LC-MS analysis; type: ADME, Canis lupus familiaris; settings: liver microsomes, read-out: Stability
# [6] = Cmax in CD-1 mouse plasma at 10 mg/kg, po measured after 8 hrs by LC-MS/MS analysis; type: ADME, organism-based; parameters: dose 10 mg/kg, time 8 hrs, route po; settings: mouse, in vivo, 8 h
# [7] = AUC(0 to 12 hrs) in Sprague-Dawley rat plasma at 30 mg/kg, po measured after 24 hrs by LC-MS/MS analysis; type: ADME, organism-based; parameters: time 24 hrs, dose 30 mg/kg, route po; settings: in vivo
# [8] = biological target: T1, Low molecular weight phosphotyrosine protein phosphatase (Mus musculus, UniProt Q9D358); test: Inhibition of N-terminal His-tagged full length mouse LMW-PTP expressed in Escherichia coli BL21(DE3) by […] analysis
# T1 sequence (Q9D358 whole entry): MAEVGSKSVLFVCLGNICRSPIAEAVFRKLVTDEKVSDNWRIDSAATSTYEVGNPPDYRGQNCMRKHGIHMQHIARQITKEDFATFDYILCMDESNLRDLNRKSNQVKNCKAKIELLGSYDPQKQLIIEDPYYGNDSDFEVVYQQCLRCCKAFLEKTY
# [9] = Unbound Cmax in plasma of CD-1 mouse at 2 mg/kg, iv measured after 8 hrs by LC-MS/MS analysis; type: ADME, organism-based; settings: in vivo
# [10] = AUC(0 to 8 hrs) in CD-1 mouse plasma at 10 mg/kg, po measured after 8 hrs by LC-MS/MS analysis; type: ADME, organism-based; parameters: dose 10 mg/kg, time 8 hrs, route po; settings: in vivo
# [11] = Oral bioavailability in CD-1 mouse plasma at 10 mg/kg measured after 8 hrs by LC-MS/MS analysis; type: ADME, organism-based
# [12] = Half life in CD-1 mouse plasma at 10 mg/kg, po measured after 8 hrs by LC-MS/MS analysis; type: ADME, organism-based; settings: in vivo
# [13] = Half life in Sprague-Dawley rat plasma at 30 mg/kg, po measured after 24 hrs by LC-MS/MS analysis; type: ADME, organism-based; settings: in vivo
# [14] = biological target: T2, Low molecular weight phosphotyrosine protein phosphatase (Rattus norvegicus, UniProt P41498); test: Inhibition of N-terminal His-tagged full length rat LMW-PTP expressed in Escherichia coli BL21(DE3)
# T2 sequence (P41498 whole entry): T1 sequence (Q9D358 whole entry) with K35N, R65K, K80R, Y158H
# [15] = Cmax in Sprague-Dawley rat plasma at 30 mg/kg, po measured after 24 hrs by LC-MS/MS analysis; type: ADME, organism-based; parameters: time 24 hrs, dose 30 mg/kg, route po; settings: in vivo
# [16] = Inhibition of PTP-Meg2 (unknown origin); parameters: species or system Homo sapiens
# [17] = Tmax in Sprague-Dawley rat plasma at 30 mg/kg, po measured after 24 hrs by LC-MS/MS analysis; type: ADME, organism-based; settings: in vivo
# [18] = Unbound Cmax in plasma of CD-1 mouse at 10 mg/kg, po measured after 8 hrs by LC-MS/MS analysis; type: ADME, organism-based; settings: in vivo
# [19] = Cmax in CD-1 mouse plasma at 2 mg/kg, iv measured after 8 hrs by LC-MS/MS analysis; type: ADME, organism-based; parameters: time 8 hrs, dose 2 mg/kg, route iv
# [20] = AUC(0 to 8 hrs) in CD-1 mouse plasma at 2 mg/kg, iv measured after 8 hrs by LC-MS/MS analysis; type: ADME, organism-based; parameters: dose 2 mg/kg, time 8 hrs, route iv; settings: in vivo
# [21] = Half life in CD-1 mouse plasma at 2 mg/kg, iv measured after 8 hrs by LC-MS/MS analysis; type: ADME, organism-based; settings: mouse, in vivo, iv, 2 mg/kg, 8 h
# [22] = Unbound Cmax in plasma of Sprague-Dawley rat at 30 mg/kg, po measured after 24 hrs by LC-MS/MS analysis; type: ADME, organism-based; settings: in vivo
# [23] = Volume of distribution at steady state in CD-1 mouse plasma at 2 mg/kg, iv measured after 8 hrs by LC-MS/MS analysis; type: ADME, organism-based; settings: in vivo
# [24] = biological target: T3, Low molecular weight phosphotyrosine protein phosphatase (Homo sapiens, UniProt P24666); test: Inhibition of His-tagged human LMW-PTP expressed in Escherichia coli BL21 using pNPP as substrate incubated for 10 mins by microplate reader based spectrophotometric analysis
# T3 sequence (P24666 whole entry): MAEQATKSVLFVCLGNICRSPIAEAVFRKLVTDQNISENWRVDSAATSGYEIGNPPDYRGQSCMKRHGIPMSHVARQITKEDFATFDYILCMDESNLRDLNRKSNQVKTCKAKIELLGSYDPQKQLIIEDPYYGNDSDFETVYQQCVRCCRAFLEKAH
# Sequence of CYP2D6 (P10635 whole entry): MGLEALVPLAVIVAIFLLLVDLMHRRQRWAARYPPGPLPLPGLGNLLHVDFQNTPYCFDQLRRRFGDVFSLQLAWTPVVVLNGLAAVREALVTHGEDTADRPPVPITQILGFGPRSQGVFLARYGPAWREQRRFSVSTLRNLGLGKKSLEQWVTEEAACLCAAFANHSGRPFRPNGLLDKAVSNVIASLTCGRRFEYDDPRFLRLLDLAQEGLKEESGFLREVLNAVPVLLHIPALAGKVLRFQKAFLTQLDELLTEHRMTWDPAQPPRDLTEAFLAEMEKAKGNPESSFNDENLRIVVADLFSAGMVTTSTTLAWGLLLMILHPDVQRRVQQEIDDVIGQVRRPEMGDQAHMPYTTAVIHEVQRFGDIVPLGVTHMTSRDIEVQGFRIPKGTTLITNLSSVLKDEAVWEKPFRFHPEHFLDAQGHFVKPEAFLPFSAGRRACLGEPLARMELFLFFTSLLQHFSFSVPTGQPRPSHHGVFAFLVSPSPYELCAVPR
# Sequence of CYP3A4 (P08684 whole entry): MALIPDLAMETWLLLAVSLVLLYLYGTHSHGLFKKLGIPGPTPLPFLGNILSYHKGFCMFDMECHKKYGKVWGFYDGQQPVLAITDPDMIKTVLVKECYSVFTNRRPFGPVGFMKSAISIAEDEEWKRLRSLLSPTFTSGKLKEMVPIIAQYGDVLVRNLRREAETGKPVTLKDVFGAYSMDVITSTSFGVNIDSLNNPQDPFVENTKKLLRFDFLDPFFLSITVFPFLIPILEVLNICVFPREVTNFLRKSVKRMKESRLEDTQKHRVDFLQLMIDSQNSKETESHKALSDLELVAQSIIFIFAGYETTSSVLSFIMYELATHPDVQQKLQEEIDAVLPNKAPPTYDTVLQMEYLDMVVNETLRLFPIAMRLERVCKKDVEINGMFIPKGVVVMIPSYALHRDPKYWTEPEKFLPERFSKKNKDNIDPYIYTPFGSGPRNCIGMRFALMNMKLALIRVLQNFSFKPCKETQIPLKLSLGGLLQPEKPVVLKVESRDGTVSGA
# Sequence of CYP2C9 (P11712 whole entry): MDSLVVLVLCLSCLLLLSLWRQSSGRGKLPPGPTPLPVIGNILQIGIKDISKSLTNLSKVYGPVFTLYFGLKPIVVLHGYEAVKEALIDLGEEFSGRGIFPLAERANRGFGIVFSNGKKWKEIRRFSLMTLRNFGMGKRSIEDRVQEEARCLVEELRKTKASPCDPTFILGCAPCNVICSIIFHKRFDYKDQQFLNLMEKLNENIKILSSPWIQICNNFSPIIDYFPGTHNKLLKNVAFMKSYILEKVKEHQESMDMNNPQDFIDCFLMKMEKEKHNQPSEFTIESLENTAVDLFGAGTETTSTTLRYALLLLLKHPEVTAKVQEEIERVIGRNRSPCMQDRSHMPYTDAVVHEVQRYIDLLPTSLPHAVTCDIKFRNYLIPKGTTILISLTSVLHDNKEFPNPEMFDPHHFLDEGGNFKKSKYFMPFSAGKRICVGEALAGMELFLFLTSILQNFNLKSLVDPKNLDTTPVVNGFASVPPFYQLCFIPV
smiles,measurement,setting,value
O=C(Nc1nc2ccccc2s1)C(c1ccccc1)S(=O)(=O)O (centres undefined),"remaining at 0.5 h, 4 µM",[1],54%
same,Fu,[2],< 0.006
same,inhibition at 0.05 h,CYP2D6,5%
same,solubility,[3],660 µg/mL
same,inhibition at 10 min,CYP2C9,69%
same,"remaining at 0.5 h, 4 µM",[4],17%
same,inhibition at 0.05 h,CYP3A4,9%
same,"remaining at 0.5 h, 4 µM",[5],61%
Cc1c(Br)cc(NC(=O)C(c2ccccc2)S(=O)(=O)O)cc1Br (centres undefined),"remaining at 0.5 h, 4 µM",[1],34%
same,Cmax,[6],1020 nM
same,Fu,[2],< 0.006
same,inhibition at 0.05 h,CYP2D6,1%
same,AUC,[7],37.1 µM·h
same,solubility,[3],920 µg/mL
same,IC50,[8],200 nM
same,fCmax,[9],< 30 nM
same,inhibition at 10 min,CYP2C9,79%
same,AUC,[10],5.24 µM·h
same,bioavailability,"[11]; CD-1, mouse, plasma",50%
same,"remaining at 0.5 h, 4 µM",[4],50%
same,t1/2,[12],5.2 h
same,t1/2,[13],3 h
same,IC50,[14],300 nM
same,Cmax,[15],6120 nM
same,IC50,[16],> 200000 nM
same,inhibition at 0.05 h,CYP3A4,0%
same,Tmax,[17],2.7 h
same,fCmax,[18],< 6 nM
same,Cmax,[19],4940 nM
same,AUC,[20],2.09 µM·h
same,t1/2,[21],2 h
same,fCmax,[22],< 43 nM
same,"remaining at 0.5 h, 4 µM",[5],59%
same,Vdss,[23],3.4 L/kg
CS(=O)(=O)c1ccc2nc(NC(=O)CS(=O)(=O)O)sc2c1,IC50,[24],300 nM
Cc1cc([N+](=O)[O-])c2nc(NC(=O)CS(=O)(=O)O)sc2c1,IC50,[24],400 nM
Cc1c(Br)cc(NC(=O)[C@@H](c2cncs2)S(=O)(=O)O)cc1Br,IC50,[24],11400 nM
O=C(Nc1nccs1)NS(=O)(=O)O,IC50,[24],49 nM
O=C(CS(=O)(=O)O)Nc1nc2ccc(C(F)(F)F)cc2s1,IC50,[24],600 nM
O=C(CS(=O)(=O)O)Nc1cnc(N2CCOCC2)c(Br)c1,IC50,[24],1200 nM
O=C(CS(=O)(=O)O)Nc1ccccc1,IC50,[24],> 100000 nM
O=C(CS(=O)(=O)O)Nc1nc2cc([N+](=O)[O-])ccc2s1,IC50,[24],400 nM
O=C(CS(=O)(=O)O)Nc1ncc(-c2ccccc2)s1,IC50,[24],1500 nM
O=C(CS(=O)(=O)O)Nc1nccs1,IC50,[24],12200 nM
O=C(CS(=O)(=O)O)Nc1nc2ccc(C(=O)N3CCCC3)cc2s1,IC50,[24],300 nM
O=C(CS(=O)(=O)O)Nc1cc(Br)cc(C(F)(F)F)c1,IC50,[24],5200 nM
Cc1ccc2nc(NC(=O)CS(=O)(=O)O)sc2c1,IC50,[24],1700 nM
O=C(CS(=O)(=O)O)Nc1nc2cccc([N+](=O)[O-])c2s1,IC50,[24],1500 nM
O=C(CS(=O)(=O)O)Nc1cc(Br)cc2ccccc12,IC50,[24],6000 nM
O=C(CS(=O)(=O)O)Nc1cc(Br)cc([N+](=O)[O-])c1,IC50,[24],3400 nM
O=C(CS(=O)(=O)O)Nc1nc2ccccc2s1,"remaining at 0.5 h, 4 µM",[1],18%
same,Fu,[2],0.209
same,inhibition at 0.05 h,CYP2D6,0%
same,solubility,[3],530 µg/mL
same,inhibition at 10 min,CYP2C9,1%
same,"remaining at 0.5 h, 4 µM",[4],3%
same,inhibition at 0.05 h,CYP3A4,6%
same,"remaining at 0.5 h, 4 µM",[5],11%
O=C(Nc1ccc(N2CCOCC2)c(Br)c1)NS(=O)(=O)O,IC50,[24],8 nM
O=C(CS(=O)(=O)O)Nc1cc(C(F)(F)F)cc(C(F)(F)F)c1,IC50,[24],5400 nM
O=C(CS(=O)(=O)O)Nc1nc2ccc([N+](=O)[O-])cc2s1,"remaining at 0.5 h, 4 µM",[1],53%
same,Fu,[2],0.057
same,inhibition at 0.05 h,CYP2D6,1%
same,IC50,[24],200 nM
same,solubility,[3],590 µg/mL
same,inhibition at 10 min,CYP2C9,0%
same,"remaining at 0.5 h, 4 µM",[4],4%
same,inhibition at 0.05 h,CYP3A4,0%
same,"remaining at 0.5 h, 4 µM",[5],7%
O=C(CS(=O)(=O)O)Nc1ccc(N2CCOCC2)c(Br)c1,"remaining at 0.5 h, 4 µM",[1],3%
same,Cmax,[6],483 nM
same,Fu,[2],0.243
same,inhibition at 0.05 h,CYP2D6,20%
same,AUC,[7],1.23 µM·h
same,IC50,[24],1500 nM
same,solubility,[3],760 µg/mL
same,IC50,[8],36 nM
same,fCmax,[9],1966 nM
same,inhibition at 10 min,CYP2C9,64%
same,AUC,[10],1.94 µM·h
same,F,"[11]; mouse, in vivo, po, 10 mg/kg, 8 h",23%
same,"remaining at 0.5 h, 4 µM",[4],3%
same,t1/2,[12],4.2 h
same,t1/2,[13],6.8 h
same,IC50,[14],36 nM
same,Cmax,[15],258 nM
same,inhibition at 0.05 h,CYP3A4,36%
same,Tmax,[17],1 h
same,fCmax,[18],117 nM
same,Cmax,[19],8090 nM
same,AUC,[20],1.72 µM·h
same,t1/2,[21],0.2 h
same,fCmax,[22],43 nM
same,"remaining at 0.5 h, 4 µM",[5],11%
same,Vdss,[23],0.73 L/kg
Cc1c(Br)cc(NC(=O)[C@@H](C#N)S(=O)(=O)O)cc1Br,IC50,[24],4400 nM
O=C(CS(=O)(=O)O)Nc1cc(Br)cc(Br)c1,IC50,[24],6000 nM
O=C(CS(=O)(=O)O)Nc1cc(I)cc(I)c1,IC50,[24],3400 nM
O=C(Nc1ccccc1)NS(=O)(=O)O,IC50,[24],121 nM
N.O=C(Nc1nc2ccccc2s1)NS(=O)(=O)O,"remaining at 0.5 h, 4 µM",[1],7%
same,Fu,[2],0.07
same,inhibition at 0.05 h,CYP2D6,0%
same,IC50,[24],56 nM
same,inhibition at 10 min,CYP2C9,0%
same,"remaining at 0.5 h, 4 µM",[4],0%
same,inhibition at 0.05 h,CYP3A4,4%
same,"remaining at 0.5 h, 4 µM",[5],0%
O=C(CS(=O)(=O)O)Nc1cc(Cl)cc(Cl)c1,IC50,[24],8600 nM
O=C(CS(=O)(=O)O)Nc1cnc2ncccc2c1,IC50,[24],1500 nM
